Measurements published in patent US8871264B2, “Immediate release tablet formulations” (AstraZeneca AB, priority 2009, dated 2014).
Read-outs that look alike come from different tables or passages of the source.

How the values were obtained:
[1] = phosphate buffer pH 6.8, 37° C., 75 rpm, n=6; for Dissoln. % 10 min: tablets of Example 12, 10 min; for Dissoln. % 20 min: tablets of Example 12, 20 min; for Dissoln. % 30 min: tablets of Example 12, 30 min; for Dissoln. % 45 min: tablets of Example 12, 45 min; for Dissoln. % 75 min: tablets of Example 12, 75 min; for Dissolution % 10 min: tablets of Example 13, 10 min; for Dissolution % 20 min: tablets of Example 13, 20 min; for Dissolution % 30 min: tablets of Example 13, 30 min; for Dissolution % 45 min: tablets of Example 13, 45 min; for Dissoln % 75 min: tablets of Example 13, 75 min
[2] = tested on: type II diabetic patients; conditions: for adjusted mean change in HbA1c from baseline: after 24 weeks; for adjusted mean change in HbA1c from baseline / adjusted mean change in FPG from baseline at Week 24: type 2 diabetes patients; for change in total body weight: at 24 weeks
Experimental: The data represent findings from a randomized, double-blind, placebo-controlled study of 546 individuals with type 2 diabetes whose HbA1c was greater than or equal to 7.0 percent and less than or equal to 10 percent at baseline. […] Patients in all arms also received metformin (greater than or equal to 1500 mg/d). […] Exploratory endpoints included body weight decrease of greater than or equal to 5 percent or greater than or equal to 10 percent as well as body weight percent change from baseline.

[3] = combination of metformin and dapagliflozin, 24 weeks, compared to placebo plus metformin
[4] = dapagliflozin 2.5 mg plus metformin
[5] = dapagliflozin 5 mg plus metformin
[6] = dapagliflozin 10 mg plus metformin

For CCOc1ccc(Cc2cc([C@@H]3O[C@H](CO)[C@@H](O)[C@H](O)[C@H]3O)ccc2Cl)cc1 [Dapagliflozin, (2S,3R,4R,5S,6R)-2-(4-chloro-3-(4-ethoxybenzyl)phenyl)-6-(hydroxymethyl)tetrahydro-2H-pyran-3,4,5-triol], the “Dissoln. % 10 min” value [1] was 38%, the “Dissoln. % 20 min” value [1] was 78% and the “Dissoln. % 30 min” value [1] was 96%. For the same compound, the “Dissoln. % 45 min” value [1] was 99%, the “Dissoln. % 75 min” value [1] was 99% and the “Dissolution % 10 min” value [1] was 37%. For the same compound, the “Dissolution % 20 min” value [1] was 77%, the “Dissolution % 30 min” value [1] was 95% and the “Dissolution % 45 min” value [1] was 97%. For the same compound, the “Dissoln % 75 min” value [1] was 97%, the “fasting plasma glucose (FPG) levels” value [2, 3] was “reduced” and the “glycosylated hemoglobin levels (HbA1c)” value [2, 3] was “reduced”. The “mean reductions in body weight” value ([2]; compared to individuals taking placebo, 24 weeks) was “statistically greater mean reductions”, the “patients achieving weight losses greater than or equal to 5 percent” value ([2]; compared to placebo, exploratory endpoint, 24 weeks) was “more patients” and the “adjusted mean change in HbA1c from baseline” value (shortened to “adjusted mean change in HbA1c”) [2, 4] was −0.67%. The “change in total body weight” value [2, 4] was -2.21 kg, the “adjusted mean change in FPG from baseline at Week 24” value [2, 4] was -17.8 mg/dL and the “adjusted mean change in HbA1c” value [2, 5] was −0.70%. The “change in total body weight” value [2, 5] was -3.04 kg, the “adjusted mean change in HbA1c” value [2, 6] was −0.84% and the “change in total body weight” value [2, 6] was -2.86 kg. The “adjusted mean change in FPG from baseline at Week 24” value [2, 6] was −23.5 mg/dL/dl.
For CN(C)C(=N)N=C(N)N [Metformin], the “Dissoln. % 10 min” value [1] was 41%, the “Dissoln. % 20 min” value [1] was 80% and the “Dissoln. % 30 min” value [1] was 97%. The “Dissoln. % 45 min” value [1] was 100%, the “Dissoln. % 75 min” value [1] was 100% and the “Dissolution % 10 min” value [1] was 41%. For the same compound, the “Dissolution % 20 min” value [1] was 81%, the “Dissolution % 30 min” value [1] was 98% and the “Dissolution % 45 min” value [1] was 100%. For the same compound, the “Dissoln % 75 min” value [1] was 100%.
